Patent publication US4180658A, “7[-2-Alkoxyamino(acetamido)]cephalosporin derivatives” (Bristol-Myers Company, priority 1978, dated 1979)
Values after ≈ are worked out from the molar mass of the structure shown. Read-outs that look alike come from different tables or passages of the source.

Experiments:
[1] = test system: S. pneumoniae; test: Antibiotic Activity in Nutrient Broth (MIC); format: cell-based; details: Streptococcus pneumoniae, 10^-3 dilution of overnight broth culture, 45% AAB + 5% serum + 50% broth
Experimental: (§1) Biological testing was performed according to the procedures described by F. Leitner et al., Antimicrobial Agents and Chemotherapy 10(3), 426-435 (September, 1976).
(§2) Antibiotic Activity in Nutrient Broth
(§3) *45% AAB + 5% serum + 50% broth listed above.
(§4) **Dilution of overnight broth culture.

[2] = test system: Str. pyogenes; test: Antibiotic Activity in Nutrient Broth (MIC); format: cell-based; details: Streptococcus pyogenes, 10^-3 dilution, 45% AAB + 5% serum + 50% broth
Experimental: as §1, §2, §3, §4

[3] = test system: E. coli Juhl; test: Antibiotic Activity in Nutrient Broth (MIC); format: cell-based; details: Escherichia coli, 10^-4 dilution
Experimental: as §1, §2, §4

[4] = test system: Ent. cloacae; test: Antibiotic Activity in Nutrient Broth (MIC); format: cell-based
Experimental: as §1, §2, §4

[5] = test system: K. pneumoniae; test: Antibiotic Activity in Nutrient Broth (MIC); format: cell-based; details: 10^-4 dilution
Experimental: as §1, §2, §4

[6] = test system: Pr. mirabilis; test: Antibiotic Activity in Nutrient Broth (MIC); format: cell-based
Experimental: as §1, §2, §4

[7] = test system: Pr. morganii; test: Antibiotic Activity in Nutrient Broth (MIC); format: cell-based; details: Morganella morganii, 10^-4 dilution
Experimental: as §1, §2, §4

[8] = test system: Pr. rettgeri; test: Antibiotic Activity in Nutrient Broth (MIC); format: cell-based; details: Providencia rettgeri, Table 1, 10^-4 dilution
Experimental: as §1, §2, §4

[9] = test system: Pr. vulgaris; test: Antibiotic Activity in Nutrient Broth (MIC); format: cell-based; details: Proteus vulgaris, Table 1, 10^-4 dilution
Experimental: as §1, §2, §4

[10] = test system: Ps. aeruginosa carb.; test: Antibiotic Activity in Nutrient Broth (MIC); format: cell-based; details: Pseudomonas aeruginosa, Table 1, 10^-4 dilution
Experimental: as §1, §2, §4

[11] = test system: Ps. aeruginosa; test: Antibiotic Activity in Nutrient Broth (MIC); format: cell-based; details: 10^-4 dilution
Experimental: as §1, §2, §4

[12] = test system: S. aureus BX1633; test: Antibiotic Activity in Nutrient Broth (MIC); format: cell-based; details: Staphylococcus aureus
Experimental: as §1, §2, §4

[13] = test system: S. aureus Meth-Res; test: Antibiotic Activity in Nutrient Broth (MIC); format: cell-based; details: Staphylococcus aureus, 10^-3 dilution
Experimental: as §1, §2, §4

[14] = test system: S. aureus Smith; test: Antibiotic Activity in Nutrient Broth (MIC); format: cell-based; details: Staphylococcus aureus, 10^-4 dilution
Experimental: as §1, §2, §4

[15] = test system: Sal. enteritidis; test: Antibiotic Activity in Nutrient Broth (MIC); format: cell-based; details: Salmonella enterica, Table 1, 10^-4 dilution
Experimental: as §1, §2, §4

[16] = test system: Ser. marcescens; test: Antibiotic Activity in Nutrient Broth (MIC); format: cell-based
Experimental: as §1, §2, §4

[17] = test system: Str. faecalis; test: Antibiotic Activity in Nutrient Broth (MIC); format: cell-based; details: Enterococcus faecalis, Table 1, 10^-4 dilution
Experimental: as §1, §2, §4

[18] = test system: Enterobacter species; test: Secondary in vitro Screening (MIC); format: cell-based; details: Table 2
Experimental: as §1

[19] = test system: Klebsiella pneumoniae; test: Secondary in vitro Screening (MIC); format: cell-based; details: Table 2, each line another isolate
Experimental: as §1

[20] = test system: Pseudomonas aeruginosa; test: Secondary in vitro Screening (MIC); format: cell-based; details: Table 2, each line another isolate
Experimental: as §1

[21] = test system: Staphylococcus aureus; test: Secondary in vitro Screening (MIC); format: cell-based; details: Table 2, each line another isolate
Experimental: as §1

[22] = Mouse Blood Levels; format: in vivo; details: im, 40 mg/kg, IM 40 mgm./kg., phosphate buffer; for concentration at 0.25 h: 0.25 hours after administration; for concentration at 0.5 h: 0.5 hours after administration; for concentration at 1 h: 1 hour after administration; for concentration at 1.5 h: 1.5 hours after administration
Experimental: as §1
*Each group consisted of 6 animals and one blood sample was taken from
(§5) Compounds prepared in phosphate buffer and dosed IM at 40 mgm./kg.
Assay Organism: B. subtilis at pH 6.0

[23] = Solubility (dosing preparation in phosphate buffer); format: physicochemical; details: compounds prepared in phosphate buffer for dosing
Excerpt: as §5

[24] = test system: S. aureus; test: Antibiotic Activity in Nutrient Broth + 50% serum (MIC); format: cell-based; details: Staphylococcus aureus, Table 1, 10^-4 dilution
Experimental: as §1, §2, §4

[25] = test system: Haemophilus influenzae; test: Secondary in vitro Screening (MIC); format: cell-based; details: Table 3, each line another isolate
Experimental: as §1

[26] = Table 1, second pair of columns
[27] = Enterobacter cloacae, Table 1, 10^-4 dilution, read-out: MIC
[28] = Klebsiella pneumoniae, Table 1, first pair of columns, read-out: MIC
[29] = Proteus mirabilis, Table 1, 10^-4 dilution, read-out: MIC
[30] = Table 1, second pair of columns, 10^-4 dilution
[31] = Pseudomonas aeruginosa, Table 1, first pair of columns, read-out: MIC
[32] = BX1633, Table 1, 10^-2 dilution
[33] = BX1633, Table 1, 10^-3 dilution
[34] = BX1633, Table 1, second pair of columns, 10^-2 dilution
[35] = Serratia marcescens, Table 1, 10^-4 dilution, read-out: MIC
[36] = first pair of lines (Example 1B susp.)
[37] = second pair of lines (Example 1B sol.)

CO/N=C(\C(=O)N[C@@H]1C(=O)N2C(C(=O)O)=C(COC(N)=O)CS[C@H]12)c1ccco1 [Cefuroxime, sodium 6R,7R3-carbamoyloxymethyl-7-(2Z)-2-methoxyimino(fur-2-yl)acetamidoceph-3-m-4-carboxylate, reference compound]
MIC ([1]; Table 1, first pair of columns): 4 ng/mL
MIC [1, 26]: 4 ng/mL
MIC ([2]; Table 1, first pair of columns): 4 ng/mL
MIC [2, 26]: 4 ng/mL
MIC ([3]; Table 1, first pair of columns): 4 µg/mL
MIC [3, 26]: 8 µg/mL
MIC [4, 27]: > 125 µg/mL
MIC [5, 28]: 2 µg/mL
MIC [6, 29]: 0.5 µg/mL
MIC [6, 30]: 0.5 µg/mL
MIC ([7]; Table 1, first pair of columns): 32 µg/mL
MIC [7, 26]: 63 µg/mL
MIC [8]: 16 µg/mL
MIC [9]: 1 µg/mL
MIC [10]: > 1000 µg/mL
MIC [11, 31]: > 125 µg/mL
MIC [12, 32]: 0.5 µg/mL
MIC [12, 33]: 0.5 µg/mL
MIC [12, 34]: 2 µg/mL
MIC ([13]; Table 1, first pair of columns): 2 µg/mL
MIC [13, 26]: > 125 µg/mL
MIC ([14]; Table 1, first pair of columns): 0.13 µg/mL
MIC [14, 26]: 0.5 µg/mL
MIC [15]: 0.5 µg/mL
MIC [16, 35]: > 125 µg/mL
MIC [16, 30]: > 125 µg/mL
MIC [17]: > 125 µg/mL
MIC [18]: 2 µg/mL
MIC [19]: 2 µg/mL
MIC [20]: 125 µg/mL
MIC [21]: 0.5 µg/mL
concentration at 0.25 h [22, 36]: 34500 ng/mL
concentration at 0.25 h [22, 37]: 25600 ng/mL
concentration at 0.5 h [22, 36]: 26300 ng/mL
concentration at 0.5 h [22, 37]: 20600 ng/mL
concentration at 1 h [22, 36]: 7600 ng/mL
concentration at 1 h [22, 37]: 6000 ng/mL
concentration at 1.5 h [22, 36]: 3100 ng/mL
concentration at 1.5 h [22, 37]: 2100 ng/mL
Solubility [23]: sol.

CO/N=C(\C(=O)N[C@@H]1C(=O)N2C(C(=O)O)=C(CSc3nnnn3CCN)CS[C@H]12)c1ccco1 [Example 1B, 7-(α-Methoxyiminofurylacetamido)-3-(1-[2'-aminoethyl]-tetrazol-5-ylthiomethyl)-3-cephem-4-carboxylic Acid]
MIC ([1]; Table 1, first pair of columns): 8 ng/mL
MIC [1, 26]: 4 ng/mL
MIC ([2]; Table 1, first pair of columns): 8 ng/mL
MIC [2, 26]: 4 ng/mL
MIC ([3]; Table 1, first pair of columns): 8 µg/mL (≈ 15.7 µM)
MIC [3, 26]: 2 µg/mL (≈ 3.93 µM)
MIC [4, 27]: 16 µg/mL (≈ 31.5 µM)
MIC [4, 30]: 8 µg/mL (≈ 15.7 µM)
MIC [5, 28]: 1 µg/mL (≈ 1.97 µM)
MIC ([5]; Klebsiella pneumoniae, Table 1, second pair of columns, read-out: MIC): 16 µg/mL (≈ 31.5 µM)
MIC ([5]; Table 1, first pair of columns): 2 µg/mL (≈ 3.93 µM)
MIC [5, 26]: 32 µg/mL (≈ 62.9 µM)
MIC [6, 29]: 0.5 µg/mL (≈ 0.983 µM)
MIC [6, 30]: 0.5 µg/mL (≈ 0.983 µM)
MIC ([7]; Table 1, first pair of columns): 2 µg/mL (≈ 3.93 µM)
MIC [7, 26]: 1 µg/mL (≈ 1.97 µM)
MIC [8]: 1 µg/mL (≈ 1.97 µM)
MIC [9]: 0.5 µg/mL (≈ 0.983 µM)
MIC [10]: 250 µg/mL (≈ 492 µM)
MIC [11, 31]: 125 µg/mL (≈ 246 µM)
MIC ([11]; Pseudomonas aeruginosa, Table 1, second pair of columns, read-out: MIC): 63 µg/mL (≈ 124 µM)
MIC [11, 26]: 125 µg/mL (≈ 246 µM)
MIC [12, 32]: 1 µg/mL (≈ 1.97 µM)
MIC [12, 33]: 0.5 µg/mL (≈ 0.983 µM)
MIC [12, 34]: 0.5 µg/mL (≈ 0.983 µM)
MIC ([13]; Table 1, first pair of columns): 2 µg/mL (≈ 3.93 µM)
MIC [13, 26]: > 125 µg/mL
MIC ([14]; Table 1, first pair of columns): 0.5 µg/mL (≈ 0.983 µM)
MIC [14, 26]: 0.5 µg/mL (≈ 0.983 µM)
MIC [15]: ≤ 0.25 µg/mL
MIC [16, 35]: 8 µg/mL (≈ 15.7 µM)
MIC [16, 30]: 8 µg/mL (≈ 15.7 µM)
MIC [17]: 63 µg/mL (≈ 124 µM)
MIC [24]: 1 µg/mL
MIC [18]: 2 µg/mL (≈ 3.93 µM)
MIC [25]: 0.5 µg/mL (≈ 0.983 µM)
MIC [19]: 2 µg/mL (≈ 3.93 µM)
MIC [20]: > 63 µg/mL
concentration at 0.25 h [22, 36]: 35000 ng/mL
concentration at 0.25 h [22, 37]: 33600 ng/mL
concentration at 0.5 h [22, 36]: 17900 ng/mL
concentration at 0.5 h [22, 37]: 17400 ng/mL
concentration at 1 h [22, 36]: 5400 ng/mL
concentration at 1 h [22, 37]: 3900 ng/mL
concentration at 1.5 h [22, 36]: < 2500 ng/mL
concentration at 1.5 h [22, 37]: < 2600 ng/mL
Solubility [23]: susp. and sol.
